Structures can show the parent of a compound that is named as a salt.
These compounds were tested against PD-1/PD-L1 interaction (PD-1-Ig / PD-L1-His) (Homo sapiens (Human), UniProt Q9NZQ7) (assay: PD-1/PD-L1 Homogenous Time-Resolved Fluorescence (HTRF) binding assay). Settings: PD-1/PD-L1 HTRF binding assay; value given as range class; read-out: Range or IC50.
In short: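 HTRF detection used 1 nM europium-cryptate anti-Ig and 20 nM APC anti-His. Compounds first saw 10 nM PD-L1-His for 15 min, and 20 nM PD-1-Ig was then added for another 15 min. Buffer was dPBS plus 0.1% BSA and 0.05% Tween-20. All concentrations are final.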

Chain of PD-1/PD-L1 interaction (PD-1-Ig / PD-L1-His) (Q9NZQ7 other isoform, or with tags, fused parts or gaps): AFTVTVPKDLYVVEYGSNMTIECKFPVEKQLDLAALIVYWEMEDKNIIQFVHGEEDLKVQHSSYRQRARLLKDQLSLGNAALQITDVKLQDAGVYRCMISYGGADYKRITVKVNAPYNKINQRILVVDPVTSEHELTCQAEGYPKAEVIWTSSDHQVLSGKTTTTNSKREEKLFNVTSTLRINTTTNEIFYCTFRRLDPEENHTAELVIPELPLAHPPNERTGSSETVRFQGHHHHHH

IC50 [nM]	Compound
0.6 to 10	Cc1c(COc2cc(OCc3cncc(Br)c3)c(CN[C@](C)(CO)C(=O)O)cc2Cl)cccc1-c1ccc2c(c1)OCCO2 [Example 1254, (R)-2-(2-((5-bromopyridin-3-yl)methoxy)-5-chloro-4-(3-(2,3-dihydrobenzo[b][1,4]dioxin-6-yl)-2-methylbenzyloxy)benzylamino)-3-hydroxy-2-methylpropanoic acid]
0.6 to 10	CC(=O)NCCNCc1cc(Cl)c(OCc2cccc(-c3ccc4c(c3)OCCO4)c2C)cc1OCc1cncc(Br)c1 [Example 1255, N-(2-(2-((5-bromopyridin-3-yl)methoxy)-5-chloro-4-(3-(2,3-dihydrobenzo[b][1,4]dioxin-6-yl)-2-methylbenzyloxy)benzylamino)ethyl)acetamide]
0.6 to 10	Cc1c(COc2cc(OCc3cncc(C#N)c3)c(CN3CCCC[C@H]3C(=O)NS(C)(=O)=O)cc2Cl)cccc1-c1ccc2c(c1)OCCO2 [Example 1256, (S)-1-(5-chloro-2-((5-cyanopyridin-3-yl)methoxy)-4-((3-(2,3-dihydrobenzo[b][1,4]dioxin-6-yl)-2-methylbenzyl)oxy)benzyl)-N-(methylsulfonyl)piperidine-2-carboxamide]
10 to 100	Cc1c(COc2cc(OCc3cncc(C#N)c3)c(CN3CCCC[C@H]3C(=O)NS(=O)(=O)N(C)C)cc2Cl)cccc1-c1ccc2c(c1)OCCO2 [Example 1257, (S)-1-(5-chloro-2-((5-cyanopyridin-3-yl)methoxy)-4-((3-(2,3-dihydrobenzo[b][1,4]dioxin-6-yl)-2-methylbenzyl)oxy)benzyl)-N—(N,N-dimethylsulfamoyl)piperidine-2-carboxamide]
10 to 100	Cc1c(COc2cc(OCc3cncc(C#N)c3)c(CN3CCCC[C@H]3C(=O)NS(=O)(=O)C(F)(F)F)cc2Cl)cccc1-c1ccc2c(c1)OCCO2 [Example 1258, (S)-1-(5-chloro-2-((5-cyanopyridin-3-yl)methoxy)-4-((3-(2,3-dihydrobenzo[b][1,4]dioxin-6-yl)-2-methylbenzyl)oxy)benzyl)-N-((trifluoromethyl)sulfonyl)piperidine-2-carboxamide]
0.6 to 10	Cc1c(COc2cc(OCc3cncc(C#N)c3)c(CN3CCCC[C@H]3C(=O)NS(=O)(=O)C3CC3)cc2Cl)cccc1-c1ccc2c(c1)OCCO2 [Example 1259, (S)-1-(5-chloro-2-((5-cyanopyridin-3-yl)methoxy)-4-((3-(2,3-dihydrobenzo[b][1,4]dioxin-6-yl)-2-methylbenzyl)oxy)benzyl)-N-(cyclopropylsulfonyl)piperidine-2-carboxamide]
0.6 to 10	Cc1c(COc2cc(OCc3cncc(C#N)c3)c(CN3CCCC[C@H]3C(=O)NS(=O)(=O)C(C)C)cc2Cl)cccc1-c1ccc2c(c1)OCCO2 [Example 1260, (S)-1-(5-chloro-2-((5-cyanopyridin-3-yl)methoxy)-4-((3-(2,3-dihydrobenzo[b][1,4]dioxin-6-yl)-2-methylbenzyl)oxy)benzyl)-N-(isopropylsulfonyl)piperidine-2-carboxamide]
0.6 to 10	Cc1c(COc2cc(OCc3cncc(C#N)c3)c(CN3CCCC[C@H]3C(=O)NS(=O)(=O)c3cn(C)cn3)cc2Cl)cccc1-c1ccc2c(c1)OCCO2 [Example 1261, (S)-1-(5-chloro-2-((5-cyanopyridin-3-yl)methoxy)-4-((3-(2,3-dihydrobenzo[b][1,4]dioxin-6-yl)-2-methylbenzyl)oxy)benzyl)-N-((1-methyl-1H-imidazol-4-yl)sulfonyl)piperidine-2-carboxamide]
10 to 100	Cc1c(COc2cc(OCc3cncc(C#N)c3)c(CN3CCCC[C@H]3C(=O)NS(=O)(=O)N3CCN(C)CC3)cc2Cl)cccc1-c1ccc2c(c1)OCCO2 [Example 1262, (S)-1-(5-chloro-2-((5-cyanopyridin-3-yl)methoxy)-4-((3-(2,3-dihydrobenzo[b][1,4]dioxin-6-yl)-2-methylbenzyl)oxy)benzyl)-N-((4-methylpiperazin-1-yl)sulfonyl)piperidine-2-carboxamide]
100 to 20000	Cc1c(COc2cc(O)c(CN[C@](C)(CO)C(=O)O)cc2Cl)cccc1-c1ccc2c(c1)OCCO2 [Example 1263, (R)-2-((5-chloro-4-((3-(2,3-dihydrobenzo[b][1,4]dioxin-6-yl)-2-methylbenzyl)oxy)-2-hydroxybenzyl)amino)-3-hydroxy-2-methylpropanoic acid, TFA]
0.6 to 10	CC(=O)NCCNCc1cc(C)c(OCc2cccc(-c3ccc4c(c3)OCCO4)c2C)cc1OCc1cccc(C#N)c1 [Example 1264, N-(2-((2-((3-cyanobenzyl)oxy)-4-((3-(2,3-dihydrobenzo[b][1,4]dioxin-6-yl)-2-methylbenzyl)oxy)-5-methylbenzyl)amino)ethyl)acetamide]
0.6 to 10	Cc1cc(CNC[C@@H](O)CC(=O)O)c(OCc2cccc(C#N)c2)cc1OCc1cccc(-c2ccc3c(c2)OCCO3)c1C [Example 1265, (S)-4-((2-((3-cyanobenzyl)oxy)-4-((3-(2,3-dihydrobenzo[b][1,4]dioxin-6-yl)-2-methylbenzyl)oxy)-5-methylbenzyl)amino)-3-hydroxybutanoic acid]
0.6 to 10	Cc1cc(CN[C@@](C)(CO)C(=O)O)c(OCc2cccc(C#N)c2)cc1OCc1cccc(-c2ccc3c(c2)OCCO3)c1C [Example 1267, (S)-2-((2-((3-cyanobenzyl)oxy)-4-((3-(2,3-dihydrobenzo[b][1,4]dioxin-6-yl)-2-methylbenzyl)oxy)-5-methylbenzyl)amino)-3-hydroxy-2-methylpropanoic acid]
0.6 to 10	Cc1cc(CN2CCCC[C@H]2C(=O)O)c(OCc2cccc(C#N)c2)cc1OCc1cccc(-c2ccc3c(c2)OCCO3)c1C [Example 1268, (S)-1-(2-((3-cyanobenzyl)oxy)-4-((3-(2,3-dihydrobenzo[b][1,4]dioxin-6-yl)-2-methylbenzyl)oxy)-5-methylbenzyl)piperidine-2-carboxylic acid]
0.6 to 10	Cc1cc(CN[C@](C)(CO)C(=O)O)c(OCc2cccc(C#N)c2)cc1OCc1cccc(-c2ccc3c(c2)OCCO3)c1C [Example 1269, (R)-2-((2-((3-cyanobenzyl)oxy)-4-((3-(2,3-dihydrobenzo[b][1,4]dioxin-6-yl)-2-methylbenzyl)oxy)-5-methylbenzyl)amino)-3-hydroxy-2-methylpropanoic acid]
0.6 to 10	Cc1cc(CNC[C@@H](O)CC(=O)O)c(OCc2ccc(F)c(C#N)c2)cc1OCc1cccc(-c2ccc3c(c2)OCCO3)c1C [Example 1270, (S)-4-((2-((3-cyano-4-fluorobenzyl)oxy)-4-((3-(2,3-dihydrobenzo[b][1,4]dioxin-6-yl)-2-methylbenzyl)oxy)-5-methylbenzyl)amino)-3-hydroxybutanoic acid]
0.6 to 10	CC(=O)NCCNCc1cc(C)c(OCc2cccc(-c3ccc4c(c3)OCCO4)c2C)cc1OCc1ccc(F)c(C#N)c1 [Example 1271, N-(2-((2-((3-cyano-4-fluorobenzyl)oxy)-4-((3-(2,3-dihydrobenzo[b][1,4]dioxin-6-yl)-2-methylbenzyl)oxy)-5-methylbenzyl)amino)ethyl)acetamide]
0.6 to 10	Cc1cc(CN2CCCC[C@H]2C(=O)O)c(OCc2ccc(F)c(C#N)c2)cc1OCc1cccc(-c2ccc3c(c2)OCCO3)c1C [Example 1272, (S)-1-(2-((3-cyano-4-fluorobenzyl)oxy)-4-((3-(2,3-dihydrobenzo[b][1,4]dioxin-6-yl)-2-methylbenzyl)oxy)-5-methylbenzyl)piperidine-2-carboxylic acid]
0.6 to 10	Cc1cc(CN[C@](C)(CO)C(=O)O)c(OCc2ccc(F)c(C#N)c2)cc1OCc1cccc(-c2ccc3c(c2)OCCO3)c1C [Example 1273, (R)-2-((2-((3-cyano-4-fluorobenzyl)oxy)-4-((3-(2,3-dihydrobenzo[b][1,4]dioxin-6-yl)-2-methylbenzyl)oxy)-5-methylbenzyl)amino)-3-hydroxy-2-methylpropanoic acid]
0.6 to 10	Cc1cc(CN[C@@H](CO)C(=O)O)c(OCc2ccc(F)c(C#N)c2)cc1OCc1cccc(-c2ccc3c(c2)OCCO3)c1C [Example 1274, (S)-2-((2-((3-cyano-4-fluorobenzyl)oxy)-4-((3-(2,3-dihydrobenzo[b][1,4]dioxin-6-yl)-2-methylbenzyl)oxy)-5-methylbenzyl)amino)-3-hydroxypropanoic acid]
0.6 to 10	Cc1cc(CN[C@@](C)(CO)C(=O)O)c(OCc2ccc(F)c(C#N)c2)cc1OCc1cccc(-c2ccc3c(c2)OCCO3)c1C [Example 1275, (S)-2-((2-((3-cyano-4-fluorobenzyl)oxy)-4-((3-(2,3-dihydrobenzo[b][1,4]dioxin-6-yl)-2-methylbenzyl)oxy)-5-methylbenzyl)amino)-3-hydroxy-2-methylpropanoic acid]
0.6 to 10	CC(=O)NCCNCc1cc(C)c(OCc2cccc(-c3ccc4c(c3)OCCO4)c2C)cc1OCc1cccnc1 [Example 1276, N-(2-((4-((3-(2,3-dihydrobenzo[b][1,4]dioxin-6-yl)-2-methylbenzyl)oxy)-5-methyl-2-(pyridin-3-ylmethoxy)benzyl)amino)ethyl)acetamide]
0.6 to 10	Cc1cc(CN[C@@H](CO)C(=O)O)c(OCc2cccnc2)cc1OCc1cccc(-c2ccc3c(c2)OCCO3)c1C [Example 1277, (S)-2-((4-((3-(2,3-dihydrobenzo[b][1,4]dioxin-6-yl)-2-methylbenzyl)oxy)-5-methyl-2-(pyridin-3-ylmethoxy)benzyl)amino)-3-hydroxypropanoic acid]
0.6 to 10	Cc1cc(CNC[C@@H](O)CC(=O)O)c(OCc2cccnc2)cc1OCc1cccc(-c2ccc3c(c2)OCCO3)c1C [Example 1278, (S)-4-((4-((3-(2,3-dihydrobenzo[b][1,4]dioxin-6-yl)-2-methylbenzyl)oxy)-5-methyl-2-(pyridin-3-ylmethoxy)benzyl)amino)-3-hydroxybutanoic acid]
0.6 to 10	Cc1cc(CN2CCCC[C@H]2C(=O)O)c(OCc2cccnc2)cc1OCc1cccc(-c2ccc3c(c2)OCCO3)c1C [Example 1279, (S)-1-(4-((3-(2,3-dihydrobenzo[b][1,4]dioxin-6-yl)-2-methylbenzyl)oxy)-5-methyl-2-(pyridin-3-ylmethoxy)benzyl)piperidine-2-carboxylic acid]

From patent publication US9850225B2, “Compounds useful as immunomodulators” (BRISTOL-MYERS SQUIBB COMPANY, priority 2014, dated 2017)
